Data as given in ChEMBL document CHEMBL3885881, “DrugMatrix”.

Organism: Rattus norvegicus
Assay: DrugMatrix - Regimen: Daily Repeat
Type: toxicity, organism-based, Sprague-Dawley
Parameters: regimen Daily Repeat, gender Male, age 6-8 weeks
Settings: in vivo, po, route oral GAVAGE, vehicle .5 % CMC; for URIC ACID / ALANINE AMINOTRANSFERASE / ALBUMIN / ALKALINE PHOSPHATASE / ASPARTATE AMINOTRANSFERASE / BLOOD UREA NITROGEN / CARBON DIOXIDE / CHLORIDE / CHOLESTEROL / CREATINE PHOSPHOKINASE / CREATININE / GLUCOSE / LACTATE DEHYDROGENASE / LIPASE / PHOSPHORUS / POTASSIUM / SODIUM / TOTAL BILIRUBIN / TOTAL PROTEIN: tissue Plasma; for BASOPHIL / EOSINOPHIL / ERYTHROCYTE COUNT / HEMATOCRIT / HEMOGLOBIN / LEUKOCYTE COUNT / LYMPHOCYTE / MEAN CORPUSCULAR HEMOGLOBIN / MEAN CORPUSCULAR HEMOGLOBIN CONCENTRATION / MEAN CORPUSCULAR VOLUME / MONOCYTE / NEUTROPHIL / PLATELET COUNT: tissue Blood
[1] = 82 mg/kg, 72 h, dose level High, time 3 day
[2] = 82 mg/kg, 120 h, dose level High, time 5 day
[3] = 82 mg/kg, […], dose level High, time 14 day

CCOP(=S)(OCC)Oc1nc(Cl)c(Cl)cc1Cl [CHLORPYRIFOS]
URIC ACID (0 mg/kg, […], dose level Control, time 14 day): 1.78 mg/dL
BASOPHIL [1]: 0.9%
EOSINOPHIL [1]: 0.43%
ERYTHROCYTE COUNT [1]: 6.87 x10E6/uL
HEMATOCRIT [1]: 44.5%
HEMOGLOBIN [1]: 14.33 G/DL
LEUKOCYTE COUNT [1]: 11.45 x10E3/uL
LYMPHOCYTE [1]: 88.3%
MEAN CORPUSCULAR HEMOGLOBIN [1]: 20.9 pg
MEAN CORPUSCULAR HEMOGLOBIN CONCENTRATION [1]: 32.27 G/DL
MEAN CORPUSCULAR VOLUME [1]: 64.87 fL
MONOCYTE [1]: 1.27%
NEUTROPHIL [1]: 7.87%
PLATELET COUNT [1]: 1233 x10E3/uL
ALANINE AMINOTRANSFERASE [1]: 42 u/L
ALBUMIN [1]: 4.03 G/DL
ALKALINE PHOSPHATASE [1]: 285.67 u/L
ASPARTATE AMINOTRANSFERASE [1]: 78.33 u/L
BLOOD UREA NITROGEN [1]: 15.33 mg/dL
CARBON DIOXIDE [1]: 30.33 mmol/L
CHLORIDE [1]: 103.67 MEQ/L
CHOLESTEROL [1]: 47 mg/dL
CREATINE PHOSPHOKINASE [1]: 263.33 u/L
CREATININE [1]: 0.5 mg/dL
GLUCOSE [1]: 170 mg/dL
LACTATE DEHYDROGENASE [1]: 57.67 u/L
LIPASE [1]: 11 u/L
PHOSPHORUS [1]: 13.43 mg/dL
POTASSIUM [1]: 7.33 MEQ/L
SODIUM [1]: 146 MEQ/L
TOTAL BILIRUBIN [1]: 0.37 mg/dL
TOTAL PROTEIN [1]: 5.93 G/DL
URIC ACID [1]: 1.53 mg/dL
BASOPHIL [2]: 0.33%
EOSINOPHIL [2]: 0.5%
ERYTHROCYTE COUNT [2]: 7.39 x10E6/uL
HEMATOCRIT [2]: 47.37%
HEMOGLOBIN [2]: 15.03 G/DL
LEUKOCYTE COUNT [2]: 10.09 x10E3/uL
LYMPHOCYTE [2]: 72.77%
MEAN CORPUSCULAR HEMOGLOBIN [2]: 20.37 pg
MEAN CORPUSCULAR HEMOGLOBIN CONCENTRATION [2]: 31.73 G/DL
MEAN CORPUSCULAR VOLUME [2]: 64.2 fL
MONOCYTE [2]: 4.53%
NEUTROPHIL [2]: 20.93%
PLATELET COUNT [2]: 1284.67 x10E3/uL
ALANINE AMINOTRANSFERASE [2]: 55.33 u/L
ALBUMIN [2]: 3.9 G/DL
ALKALINE PHOSPHATASE [2]: 305.67 u/L
ASPARTATE AMINOTRANSFERASE [2]: 236.67 u/L
BLOOD UREA NITROGEN [2]: 13 mg/dL
CARBON DIOXIDE [2]: 28.33 mmol/L
CHLORIDE [2]: 103.67 MEQ/L
CHOLESTEROL [2]: 44.67 mg/dL
CREATINE PHOSPHOKINASE [2]: 186.67 u/L
CREATININE [2]: 0.33 mg/dL
GLUCOSE [2]: 139.33 mg/dL
LACTATE DEHYDROGENASE [2]: 62.67 u/L
LIPASE [2]: 8 u/L
PHOSPHORUS [2]: 12.8 mg/dL
POTASSIUM [2]: 6 MEQ/L
SODIUM [2]: 148 MEQ/L
TOTAL BILIRUBIN [2]: 0.27 mg/dL
TOTAL PROTEIN [2]: 6 G/DL
URIC ACID [2]: 1.63 mg/dL
BASOPHIL [3]: 0.37%
EOSINOPHIL [3]: 0.67%
ERYTHROCYTE COUNT [3]: 7.6 x10E6/uL
HEMATOCRIT [3]: 45.9%
HEMOGLOBIN [3]: 15.3 G/DL
LEUKOCYTE COUNT [3]: 16.12 x10E3/uL
LYMPHOCYTE [3]: 84.43%
MEAN CORPUSCULAR HEMOGLOBIN [3]: 20.2 pg
MEAN CORPUSCULAR HEMOGLOBIN CONCENTRATION [3]: 33.37 G/DL
MEAN CORPUSCULAR VOLUME [3]: 60.43 fL
MONOCYTE [3]: 1.7%
NEUTROPHIL [3]: 11.33%
PLATELET COUNT [3]: 1183 x10E3/uL
ALANINE AMINOTRANSFERASE [3]: 46 u/L
ALBUMIN [3]: 4.3 G/DL
ALKALINE PHOSPHATASE [3]: 329.67 u/L
ASPARTATE AMINOTRANSFERASE [3]: 114 u/L
BLOOD UREA NITROGEN [3]: 16.33 mg/dL
CARBON DIOXIDE [3]: 26.67 mmol/L
CHLORIDE [3]: 101 MEQ/L
CHOLESTEROL [3]: 72 mg/dL
CREATINE PHOSPHOKINASE [3]: 262 u/L
CREATININE [3]: 0.43 mg/dL
GLUCOSE [3]: 144 mg/dL
LACTATE DEHYDROGENASE [3]: 145.67 u/L
LIPASE [3]: 9 u/L
PHOSPHORUS [3]: 10.07 mg/dL
POTASSIUM [3]: 6.2 MEQ/L
SODIUM [3]: 149 MEQ/L
TOTAL BILIRUBIN [3]: 0.4 mg/dL
URIC ACID [3]: 1.8 mg/dL
